Measurements published in patent US4461900A, “4,5-Dihydrothiadiazole 1,1-dioxide derivatives” (American Home Products Corporation, priority 1983, dated 1984).

Assays:
H2 -receptor = molecular target: T1, H2 -receptor (Cavia porcellus, UniProt P47747); test: In vitro H2 antagonism: histamine-induced heart rate increase in isolated guinea-pig right atria; format: cell-based; settings: at 10^-4, 10^-5 M
T1 construct: The right atria of Males Charles River guinea-pigs; from tissue; host or cells: isolated right atria of male Charles River guinea-pigs
T1 sequence (P47747 whole entry): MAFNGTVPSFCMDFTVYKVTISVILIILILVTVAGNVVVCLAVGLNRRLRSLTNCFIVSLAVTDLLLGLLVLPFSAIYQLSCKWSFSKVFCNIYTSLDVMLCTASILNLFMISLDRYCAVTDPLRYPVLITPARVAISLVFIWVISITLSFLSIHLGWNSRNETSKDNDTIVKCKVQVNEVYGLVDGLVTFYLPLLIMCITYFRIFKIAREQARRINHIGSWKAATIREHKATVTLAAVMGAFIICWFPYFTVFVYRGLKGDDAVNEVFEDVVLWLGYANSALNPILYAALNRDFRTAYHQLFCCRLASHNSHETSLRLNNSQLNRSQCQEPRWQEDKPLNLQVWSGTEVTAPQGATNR
Description: The right atria of Males Charles River guinea-pigs (250-325 gm), trimmed of extraneous tissues is suspended in a bath at a 1.0 g tension load between an anchor and a Grass Model FT03 force displacement transducer which is coupled to a Beckman Dynograph recorder. The Krebs-Henseleit bath is oxygenated (95% O2 -5% CO2) and maintained at 32° C. After establishing a regular pattern of spontaneous activity over one hour, cumulative doses of histamine are introduced into the bath and the maximal heart rate increase recorded after each addition to establish a response control.
Then the tissue is washed, returned to rest rates and the compound being treated is introduced into the bath. Thirty minutes later the histamine dose-response study is repeated. The response to histamine in the presence of an antagonist differs from that obtained in the absence of antagonist and the log of the ratio of differences is platted against the log concentration of antagonist for each of several concentrations from which the apparent dissociation constant (pA2) is calculated.

H2 receptor = settings: cited from earlier work
[1] = system: histamine induced gastric acid secretion; settings: dog; cited from earlier work

SMILES: CN(C)Cc1ccc(CSCCNC2=NS(=O)(=O)CN2)o1 [Example 1, N-[2-[[[5-[(DIMETHYLAMINO)METHYL]-2-FURANYL]METHYL]THIO]ETHYL]-4,5-DIHYDRO- 1,2,4-THIADIAZOL-3-AMINE 1,1-DIOXIDE]
- H2 antagonism (activity at stated concentrations) (H2 -receptor): active

SMILES: CNC(=NC#N)NCCSCc1csc(N=C(N)N)n1 [Tiotidine]
- Potency relative to cimetidine in H2 receptor antagonism (H2 receptor; both in vitro and in vivo studies): at least ten

SMILES: CNC(=C[N+](=O)[O-])NCCSCc1ccc(CN(C)C)o1 [Ranitidine]
- Potency relative to cimetidine in blocking histamine induced gastric acid secretion [1]: about 5 times

SMILES: C#CCNC(=NC#N)NCCSCc1nc[nH]c1C [Etintidine]
- Potency as H2 -receptor antagonist relative to cimetidine (H2 receptor): more potent than cimetidine
